Test results published in ChEMBL document CHEMBL1201862, “PubChem BioAssay data set” (2004).
Calls of active or inactive are those of the source.

Columns and labels:
[1] = biological target: Paired box protein Pax-8 (Homo sapiens, UniProt Q06710); assay: inhibitors of PAX8-driven TPO luciferase reporter, dose response, RMG-I cells, cherry-pick (AID 687027); format: functional, cell-based;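 further: luciferase reporter driven by Pax8 target thyroperoxidase promoter measured by SteadyGlo luminescence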
[2] = biological target: Exodeoxyribonuclease V (Escherichia coli (strain K12), UniProt P04993+P07648+P08394); assay: E. coli RecBCD inhibitors, dose response, counter-screen for AddAB inhibitor project, absorbance, V66 E. coli, mutant T4 phage (AID 492957); format: functional, cell-based, Escherichia coli str. K-12 substr. MG1655
[3] = Counterscreen for AddAB inhibitors: absorbance-based bacterial cell-based high throughput dose response assay for inhibitors of bacterial viability. [Related pubchem assays (depositor defined):AID435030, AID449728, AID449731, AID488942, AID488955, AID488956]; format: functional
[4] = biological target: T1, Tyrosine-protein phosphatase non-receptor type 7 (Homo sapiens, UniProt P35236); assay: HePTP (PTPN7) phosphatase inhibitor potency, SAR follow-up, biochemical, set 2 (AID 449736); format: functional
T1 sequence (P35236 whole entry): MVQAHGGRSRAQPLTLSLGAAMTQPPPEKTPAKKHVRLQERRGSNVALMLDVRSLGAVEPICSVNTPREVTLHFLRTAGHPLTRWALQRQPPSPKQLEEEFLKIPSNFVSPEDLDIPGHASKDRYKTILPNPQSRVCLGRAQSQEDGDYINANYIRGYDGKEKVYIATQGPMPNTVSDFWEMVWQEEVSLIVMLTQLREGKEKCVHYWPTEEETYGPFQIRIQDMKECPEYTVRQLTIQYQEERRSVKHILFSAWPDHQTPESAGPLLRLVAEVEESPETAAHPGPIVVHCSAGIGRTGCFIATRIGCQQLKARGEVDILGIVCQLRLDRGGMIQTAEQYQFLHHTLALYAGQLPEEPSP

[5] = biological target: T2, G-protein coupled receptor 35 (Homo sapiens, UniProt Q9HC97); assay: SAR analysis of Agonists of the GPR35 Receptor using an Image-Based Assay - Set 4. [Related pubchem assays (depositor defined):AID2013, AID2026]; format: functional
[6] = biological target: T3, Cannabinoid receptor 2 (Homo sapiens, UniProt P34972); assay: SAR analysis of antagonists of the Cannabinoid Receptor 2 using an Image-Based Assay - Set 3. [Related pubchem assays (depositor defined):AID2013, AID2026]; format: functional
[7] = biological target: T2, G-protein coupled receptor 35; assay: SAR analysis of Antagonists of the GPR35 Receptor using an Image-Based Assay - Set 6. [Related pubchem assays (depositor defined):AID2013, AID2026]; format: functional
[8] = biological target: T4, Cannabinoid receptor 1 (Homo sapiens, UniProt P21554); assay: SAR analysis of antagonists of the Cannabinoid Receptor 1 using an Image-Based Assay - Set 4. [Related pubchem assays (depositor defined):AID2013, AID2026]; format: functional
[9] = biological target: G-protein coupled receptor 55 (Homo sapiens, UniProt Q9Y2T6); assay: SAR Analysis of Selective Antagonists of GPR55 using an Image-Based Assay - Set 4. [Related pubchem assays (depositor defined):AID2013, AID2026]; format: functional;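 further: antagonism of response to 5 µM lysophosphatidylinositol agonist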
[10] = biological target: T3, Cannabinoid receptor 2; assay: SAR analysis of agonists of the Cannabinoid Receptor 2 using an Image-Based Assay - Set 3. [Related pubchem assays (depositor defined):AID2013, AID2026]; format: functional
[11] = biological target: T4, Cannabinoid receptor 1; assay: SAR analysis of agonists of the Cannabinoid Receptor 1 using an Image-Based Assay - Set 4. [Related pubchem assays (depositor defined):AID2013, AID2026]; format: functional
[12] = biological target: T5, Endoribonuclease toxin MazF (Escherichia coli K-12, UniProt P0AE70); assay: MazF toxin RNase activators, dose response, biochemical, fluorescence, single-stranded RNA substrate, uHTS hits (AID 588481); format: functional
T5 sequence (P0AE70 whole entry): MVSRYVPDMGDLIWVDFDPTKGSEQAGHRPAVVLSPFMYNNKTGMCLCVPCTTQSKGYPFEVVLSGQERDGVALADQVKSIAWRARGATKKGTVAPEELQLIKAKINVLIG

[13] = biological target: T5, Endoribonuclease toxin MazF; assay: fluorescent RNA oligo signal without MazF, dose response, counter-screen for MazEF activator project, biochemical, fluorescence, single-stranded RNase substrate (AID 588502); format: functional
[14] = biological target: T6, Fibrinogen beta chain (Homo sapiens, UniProt P02675); assay: Fluorescence polarization-based biochemical high throughput dose response assay to identify inhibitors that disrupt the binding of a cyclic peptide (Tn7) to the fibrin proteolytic product D-Dimer and fragment E complex [DD(E )].
[15] = biological target: Cyclin-dependent kinase 5/CDK5 activator 1 (Homo sapiens, UniProt Q00535); assay: CDK5/p35 kinase inhibitors, dose response, biochemical, cherry-picked samples, set 2 (AID 504545)
[16] = biological target: Intestinal-type alkaline phosphatase (Homo sapiens, UniProt P09923); assay: activation of human intestinal alkaline phosphatase – biochemical, dose response (AID 488873); format: functional
[17] = biological target: T6, Fibrinogen beta chain; assay: Fluorescence polarization-based biochemical high throughput dose response assay to identify inhibitors that disrupt the binding of a cyclic peptide (Tn6) to the fibrin proteolytic product D-Dimer and fragment E complex [DD(E )].
[18] = biological target: Large T antigen (Simian virus 40, UniProt P03070); format: functional, Betapolyomavirus macacae;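 further: Confirmatory-stage PubChem screen for compounds that inhibit SV40 T antigen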
[19] = biological target: Induced myeloid leukemia cell differentiation protein Mcl-1 (Homo sapiens, UniProt Q07820); format: functional
[20] = biological target: Genome polyprotein (dengue virus type 2, UniProt P29990); assay: Dengue-2 NS5 methyltransferase inhibitors, primary screen, biochemical, confirmation dose response (AID 588689); format: functional
[21] = biological target: Intestinal-type alkaline phosphatase (Mus musculus, UniProt P24822); assay: mouse intestinal alkaline phosphatase activators, dose response, biochemical, luminescence, uHTS hits (AID 488783); format: functional
[22] = biological target: Major prion protein (Homo sapiens, UniProt P04156); format: functional, cell-based
[23] = biological target: Glucose-6-phosphate 1-dehydrogenase (Homo sapiens, UniProt P11413); assay: human G6PD enzyme inhibitors, dose response, selectivity assay for P. falciparum G6PD inhibitor project, biochemical, fluorescence (AID 504792); format: functional
[24] = biological target: T7, Alkaline phosphatase, tissue-nonspecific isozyme (Homo sapiens, UniProt P05186); assay: TNAP enzyme activators, dose response, selectivity assay for mouse IAP activator project, biochemical, TNAP isozyme, mouse IAP uHTS hits (AID 488880); format: functional
T7 sequence (P05186 whole entry): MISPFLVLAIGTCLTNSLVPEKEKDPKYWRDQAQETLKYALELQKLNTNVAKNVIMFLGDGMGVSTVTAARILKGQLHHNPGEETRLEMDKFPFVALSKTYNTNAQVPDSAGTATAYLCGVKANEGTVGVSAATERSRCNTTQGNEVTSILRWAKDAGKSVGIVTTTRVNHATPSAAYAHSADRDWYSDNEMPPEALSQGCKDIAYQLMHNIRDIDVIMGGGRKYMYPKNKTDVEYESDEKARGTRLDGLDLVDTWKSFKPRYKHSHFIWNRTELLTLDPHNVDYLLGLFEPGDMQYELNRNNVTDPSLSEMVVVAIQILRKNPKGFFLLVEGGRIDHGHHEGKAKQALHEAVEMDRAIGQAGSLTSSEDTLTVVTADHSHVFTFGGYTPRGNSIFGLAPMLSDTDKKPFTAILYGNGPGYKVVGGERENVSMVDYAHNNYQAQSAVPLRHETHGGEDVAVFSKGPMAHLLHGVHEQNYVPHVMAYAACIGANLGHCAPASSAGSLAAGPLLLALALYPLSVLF

[25] = cells

For `COc1cc(NC(=O)c2ccc([N+](=O)[O-])o2)ccc1NC(=O)c1ccco1`, the AC50 [1] was 3.75 µM (active), the IC50 [2] was > 119 µM (inactive) and the IC50 [3] was > 119 µM (inactive).

In the case of `Cc1ccc(C)c(-n2c(N)c(C(=O)N3CCCCC3)sc2=S)c1`, the IC50 [4] was > 100 µM (inactive).

With `Cc1[nH]nc(-c2ccc(OCCN3CCOCC3)cc2O)c1-c1ccc(Cl)cc1` the EC50 [5] was > 32 µM (inactive), the IC50 [6] was 29.1 µM (inactive) and the IC50 [7] was > 32 µM (inactive). The IC50 [8] was 2.11 µM (active), the IC50 [9] was 19.2 µM (inactive) and the EC50 [10] was > 32 µM (inactive). For the same compound, the EC50 [11] was > 32 µM (inactive).

For `Oc1cc2c(cc1O)C1c3ccc(O)c(O)c3OCC1(O)C2` (stereo not given) [HAEMATOXYLIN], the EC50 [12] was 30.1 µM (inactive), the EC50 [13] was 72.8 µM (inactive) and the IC50 [14] was > 83.3 µM (inactive). The AC50 [15] was 17.5 µM (active), the EC50 [16] was 50 µM (active) and the IC50 [17] was 9.33 µM (active). The IC50 [18] was 4.66 µM (active), the IC50 [19] was 3.44 µM (active) and the IC50 [20] was 17.4 µM (active). The EC50 [21] was 62.1 µM (active), the IC50 [22] was 14 µM (inactive) and the IC50 [23] was 66.5 µM (inactive). The EC50 [24] was 85.7 µM (active) and the IC50 [25] was > 138 µM (inactive).
